{"source": "paper PMC12365674", "about": "“Diverse metabolites with anti-psoriasis potential from different fermentations of the fungicolous fungus Xylarialongipes HFG1018” (IMA Fungus, 2025)", "key": {"[1]": {"test_system": "ConA-induced T lymphocytes", "assay": "Anti-proliferative activity against ConA-induced T lymphocytes (CCK-8)", "format": "cell-based", "details": "Mus musculus, T-lymphocyte", "protocol": "(§1) As previously described, the immunosuppressive activity, lymphocyte viability, and antiproliferative activity against HaCaT cells were evaluated using the CCK-8 method ([Zhao et al. 2023], [2024]).\n(§2) In the immunosuppressive and lymphocyte viability, the primary tested concentration of all compounds was 20.0 μM, and dexamethasone (Dex) (c = 2.0 μM) was used as a positive control. In the antiproliferative activity against HaCaT cells, the primary tested concentration of all compounds was 40 μM, and the positive control was methotrexate (MTX) (c = 40.0 μM). When the inhibition rates are greater than 50%, the IC50 values of active compounds will be further tested and calculated. All experiments were performed in triplicate."}, "[2]": {"test_system": "ConA-induced T lymphocytes", "assay": "Anti-proliferative activity against ConA-induced T lymphocytes (CCK-8)", "format": "cell-based", "details": "Mus musculus, T-lymphocyte, c = 40 μM, read-out: Inhibition rate (%) T"}, "[3]": {"test_system": "LPS-induced B lymphocytes", "assay": "Anti-proliferative activity against LPS-induced B lymphocytes (CCK-8)", "format": "cell-based, mouse", "details": "for IC50: induced proliferation of B lymphocytes (LPS), CCK-8, read-out: B cells IC50", "protocol": "as §1, §2"}, "lymphocytes [4]": {"test_system": "lymphocytes", "assay": "Lymphocyte viability (CCK-8)", "format": "cell-based, mouse", "details": "c = 40 μM"}, "lymphocytes [5]": {"test_system": "lymphocytes", "assay": "Lymphocyte viability (CCK-8)", "format": "cell-based, mouse", "details": "c = 20 μM", "protocol": "as §1, §2"}, "IL-2": {"test_system": "IL-2", "assay": "Cytokine analysis by ELISA of induced T cells: IL-2", "format": "cell-based, mouse", "details": "40 μM; ConA-induced T cells, 48 h; P < 0.01 vs. model", "protocol": "(§3) The mononuclear cell suspensions (2 × 10^5 cells/well) were cultured with ConA (5 μg/mL) in 96-well plates, and indicated concentrations of compounds 2, 15, and 32 were added simultaneously. After a 48-hour culture period, cytokines in the supernatants were quantified using mouse IFN-γ, IL-2, and IL-17A ELISA kits (Mabtech, Sweden), following the manufacturer’s protocol ([Jing et al. 2021]; [Zhao et al. 2024])."}, "IFN-γ": {"test_system": "IFN-γ", "assay": "Cytokine analysis by ELISA of induced T cells: IFN-γ", "format": "cell-based, mouse", "details": "ConA-induced T cells, 48 h; all sample groups; P < 0.0001 vs. model", "protocol": "as §3"}, "[6]": {"test_system": "LPS-induced B lymphocytes", "assay": "Anti-proliferative activity against LPS-induced B lymphocytes (CCK-8)", "format": "cell-based", "details": "Mus musculus, Lymphocyte, c = 40 μM, read-out: Inhibition rate (%) B"}, "[7]": {"test_system": "induced T cells (Con A 5 μg/mL)", "assay": "EdU proliferation assay, induced T cells", "format": "cell-based, mouse", "details": "c = 10 μM; relative to the model group", "protocol": "(§4) EdU fluorescence labeling for cell proliferation of induced T/B lymphocytes (2 × 10^5 cells/well) and HaCaT cells (1 × 10^4 cells/well) of active compounds 10, 19, 23, 32, 38, and 41 (final concentration 10 or 20 μM) was performed as previously reported ([Biram and Shulman 2020]; [Zhao et al. 2024]). EdU (HF488) (the Click-iT™ EdU Flow Cytometry Assay Kit, APExBIO, USA) was added 24 h (final concentration 50 μM, T and B cells) and 4 h (final concentration 10 μM, HaCaT cells) before harvesting the cells. All procedures were performed according to the manufacturer’s instructions for the click reaction. EdU-positive cells and proliferating phase cells were analyzed with a fluorescence microscope."}, "[8]": {"test_system": "NF-κB p65 phosphorylation", "assay": "Immunofluorescence of p-p65/p65 in HaCaT cells", "format": "cell-based", "details": "27.0 μM, 36 h, P < 0.01 vs. Con", "protocol": "The immunofluorescence protocol was performed using the reported method ([Zhao et al. 2024]). HaCaT cells (2.0 × 10^5 cells/well) were plated onto 6-well plates with glass coverslips and adhered overnight (12 h) before compound addition. After treatment with active compounds 10 (final concentration 31 μM) and 32 (final concentration 27 μM) for 36 h, the supernatant was removed, and the cells were washed twice with PBS, fixed with 4% paraformaldehyde for 15 min, and then washed with PBS three times. After blocking, incubated with NF-κB p65 (p65)/phosphorylated NF-κB p65 (p-p65) antibodies and secondary antibodies (Servicebio, China). Then, cells were counterstained with 4,6-[…]-2-phenylindole (DAPI) for 5 min. After the PBS washing, fluorescent seal liquid was added, and the plate was monitored under an imaging system (Pannoramic MIDI, 3Dhistech, Hungary). The nucleus is blue, and positive cells are green (p-p65) or red (p65). The immunofluorescence areas for each indicator were analyzed in ImageJ."}, "[9]": {"assay": "Lymphocyte viability (CCK-8)", "format": "cell-based, mouse", "details": "mouse, lymphocytes; lymphocyte viability; CCK-8", "protocol": "as §1, §2"}, "[10]": {"test_system": "induced B cells (LPS 15 μg/mL)", "assay": "EdU proliferation assay, induced B cells", "format": "cell-based, mouse", "details": "c = 10 μM; relative to the model group", "protocol": "as §4"}, "IL-17A": {"test_system": "IL-17A", "assay": "Cytokine analysis by ELISA of induced T cells: IL-17A", "format": "cell-based, mouse", "details": "10 μM; ConA-induced T cells, 48 h; P < 0.01 vs. model", "protocol": "as §3"}, "HaCaT cells [11]": {"test_system": "HaCaT cells", "assay": "EdU proliferation assay, HaCaT cells", "format": "cell-based", "details": "c = 20 μM; compared to the control group", "protocol": "as §4"}, "HaCaT cells [12]": {"test_system": "HaCaT cells", "assay": "Antiproliferative activity against HaCaT cells (CCK-8)", "format": "cell-based", "details": "Homo sapiens, HaCaT, read-out: IC50 against the proliferation of HaCaT cells", "protocol": "as §1, §2"}}, "note": "Entries after “also recorded” stand apart in the source; their conditions may differ. Read-outs that look alike come from different tables or passages of the source.", "data": [{"smiles": "C[C@]1(CCO)CC[C@H]2C(=CC[C@@H]3[C@]2(C)CCC[C@]3(C)C(=O)O)C1", "note": "[Compound 15, 16-hydroxyisopimar-7-en-19-oic acid]", "values": [{"measurement": "inhibition at 20 µM", "setting": "[1]; c = 20 μM, ConA-induced T lymphocytes, read-out: Inhibition rate (%) T", "value": "26.4 ± 6.3", "unit": "%"}, {"measurement": "inhibition at 40 µM", "setting": "[2]", "value": "28.8 ± 5.8", "unit": "%"}, {"measurement": "inhibition at 20 µM", "setting": "[3]; Mus musculus, Lymphocyte, c = 20 μM, LPS-induced B lymphocytes, read-out: Inhibition rate (%) B", "value": "23 ± 4.3", "unit": "%"}, {"measurement": "Cell validity (%)", "setting": "lymphocytes [4]", "value": "80.2 ± 1.8", "unit": "%"}, {"measurement": "Cell validity (%)", "setting": "lymphocytes [5]", "value": "89.9 ± 7.5", "unit": "%"}, {"measurement": "IL-2 levels", "setting": "IL-2", "value": "significantly reduced"}, {"measurement": "IFN-γ secretion", "setting": "IFN-γ", "value": "significant reduction; also recorded: significantly reduced"}, {"measurement": "inhibition at 40 µM", "setting": "[6]", "value": "29 ± 12.2", "unit": "%"}]}, {"smiles": "CO[C@@H]1C=C2[C@@H]3CC[C@H]([C@H](C)/C=C/[C@H](C)C(C)C)[C@@]3(C)CC[C@@H]2[C@@]2(C)CC[C@H](O)C[C@]12O", "note": "[Compound 32, (3β,5α,6β,22E)-6-methoxyergosta-7,22-diene-3,5-diol]", "values": [{"measurement": "IC50", "setting": "[1]; induced proliferation of T lymphocytes (ConA), CCK-8, read-out: T cells IC50", "value": "3.1 ± 0.2", "unit": "µM"}, {"measurement": "proliferation of induced T cells measured by EdU", "setting": "[7]", "value": "significantly suppressed the proliferation"}, {"measurement": "IC50", "setting": "[3]; Mus musculus, Lymphocyte", "value": "8 to 20", "unit": "µM"}, {"measurement": "IC50", "setting": "[3]", "value": "6 ± 0.3", "unit": "µM"}, {"measurement": "NF-κB activation (ratio p-p65/p65)", "setting": "[8]", "value": "significantly attenuated NF-κB activation"}, {"measurement": "CC50", "setting": "[9]", "value": "> 20", "unit": "µM"}, {"measurement": "proliferation of induced B cells measured by EdU", "setting": "[10]", "value": "significantly suppressed the proliferation"}, {"measurement": "IFN-γ secretion", "setting": "IFN-γ", "value": "significant reduction; also recorded: significantly reduced"}, {"measurement": "IL-17A levels", "setting": "IL-17A", "value": "markedly lowered; also recorded: inhibiting IL-17A secretion"}, {"measurement": "proliferation rates of HaCaT cells measured by EdU", "setting": "HaCaT cells [11]", "value": "significantly reduced"}, {"measurement": "IC50", "setting": "HaCaT cells [12]", "value": "27 ± 1.3", "unit": "µM"}]}]}
